Data published in the supplement of paper PMC10307832.

Tests used:
Test in all cases: relative viability (nuclei count vs DMSO), 5 days (fraction); higher = more cells survive
[1] = compound: C[As](C)SC[C@H](NC(=O)CC[C@H](N)C(=O)O)C(=O)NCC(=O)O [Darinaparsin] + CC1(C)CCC(c2ccc(Cl)cc2)=C(CN2CCN(c3ccc(C(=O)NS(=O)(=O)c4ccc(N[C@H](CCN5CCOCC5)CSc5ccccc5)c(S(=O)(=O)C(F)(F)F)c4)cc3)CC2)C1 [Navitoclax] (partner 0.5 µM)
How it was run: (§1)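 The day after seeding in 1536-well plates, lung cancer cell lines were treated by pin tool with a single drug, or with a fixed anchor-drug dose together with five library-drug doses (not always all listed) in √10 steps. After 5 days, a combined fix-and-stain solution (final 0.05% Triton X-100, 1% formaldehyde, 1 ug/ml Hoechst) was added. Nuclei counted on 4× images gave relative viability as treated counts over vehicle counts, reported as the median of duplicate plates.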

Darinaparsin + Foretinib = compound: C[As](C)SC[C@H](NC(=O)CC[C@H](N)C(=O)O)C(=O)NCC(=O)O [Darinaparsin] + COc1cc2c(Oc3ccc(NC(=O)C4(C(=O)Nc5ccc(F)cc5)CC4)cc3F)ccnc2cc1OCCCN1CCOCC1 [Foretinib] (partner 0.25 µM)
How it was run: as §1

Darinaparsin + Dasatinib = compound: C[As](C)SC[C@H](NC(=O)CC[C@H](N)C(=O)O)C(=O)NCC(=O)O [Darinaparsin] + Cc1nc(Nc2ncc(C(=O)Nc3c(C)cccc3Cl)s2)cc(N2CCN(CCO)CC2)n1 [Dasatinib] (partner 0.075 µM)
How it was run: as §1

[2] = compound: C[As](C)SC[C@H](NC(=O)CC[C@H](N)C(=O)O)C(=O)NCC(=O)O [Darinaparsin] + Nc1nc2[nH]cc(CCc3ccc(C(=O)N[C@@H](CCC(=O)O)C(=O)O)cc3)c2c(=O)[nH]1 [Pemetrexed] (partner 0.2 µM)
How it was run: as §1

Row | Cell Line | relative viability ([1]; first compound 0.08 µM) | relative viability ([1]; first compound 0.8 µM) | relative viability ([1]; first compound 2.53 µM) | relative viability ([1]; first compound 8 µM) | relative viability (Darinaparsin + Foretinib; first compound 0.08 µM) | relative viability (Darinaparsin + Foretinib; first compound 0.8 µM) | relative viability (Darinaparsin + Foretinib; first compound 2.53 µM) | relative viability (Darinaparsin + Foretinib; first compound 8 µM) | relative viability (Darinaparsin + Dasatinib; first compound 0.08 µM) | relative viability (Darinaparsin + Dasatinib; first compound 0.8 µM) | relative viability (Darinaparsin + Dasatinib; first compound 2.53 µM) | relative viability (Darinaparsin + Dasatinib; first compound 8 µM) | relative viability ([2]; first compound 0.08 µM) | relative viability ([2]; first compound 0.8 µM) | relative viability ([2]; first compound 2.53 µM) | relative viability ([2]; first compound 8 µM)
1 | A-427 | 0.961 | 1 | 1.03 | 0.98 | 1.35 | 1.15 | 0.989 | 1.32 | 0.843 | 0.809 | 0.707 | 0.733 | 1.06 | 0.934 | 1.1 | 1.02
2 | NCI-H1355 | 1.08 | 0.94 | 0.836 | 1.05 | 1.09 | 0.91 | 0.854 | 0.768 | 0.717 | 0.69 | 0.596 | 0.689 | 1.16 | 1.08 | 0.906 | 1.07
3 | NCI-H2170 | 0.615 | 0.524 | 0.559 | 0.69 | 1.01 | 0.965 | 0.992 | 1.19 | 0.65 | 0.612 | 0.481 | 0.647 | 0.32 | 0.267 | 0.389 | 0.287
4 | NCI-H1793 | 0.649 | 0.366 | 0.333 | 0.442 | 0.766 | 0.77 | 0.524 | 0.829 | 0.421 | 0.366 | 0.348 | 0.424 | 1.01 | 0.89 |  | 1.05
5 | NCI-H2023 | 1.08 | 1.07 | 0.951 | 1.2 | 0.847 | 0.78 | 0.821 | 0.904 | 0.724 | 0.656 | 0.352 | 0.729 | 0.335 | 0.231 | 0.202 | 0.227
6 | NCI-H520 | 1.41 | 0.976 | 1.17 | 1.11 | 1.12 | 0.662 | 0.845 | 0.871 | 0.215 | 0.237 | 0.189 | 0.212 | 0.639 | 0.613 | 0.68 | 0.76
7 | NCI-H2087 | 1.3 | 1.04 | 1.01 | 1.13 | 1.44 | 1.09 | 1.03 | 1.37 | 1.11 | 0.906 | 0.793 | 1.52 | 0.656 | 0.671 | 0.667 | 0.616
8 | NCI-H596 | 1.3 | 1.11 | 0.83 | 1.23 | 0.906 | 0.974 | 0.734 | 0.67 | 0.624 | 0.625 | 0.632 | 0.566 | 0.513 | 0.533 | 0.479 | 0.508
9 | NCI-H2009 | 1.35 | 1.11 | 1.11 | 1.06 | 0.435 | 1.18 | 1.15 | 1.33 | 0.307 | 0.32 | 0.266 | 0.233 | 1.09 | 1.07 | 1 | 1.08
10 | NCI-H1993 | 0.801 | 0.836 | 1.04 | 1.16 | 0.738 | 0.761 | 0.788 | 0.921 | 0.68 | 0.532 | 0.535 | 0.575 | 0.617 | 0.66 | 0.599 | 0.64
11 | COR-L23 | 1.38 | 1.12 | 0.945 | 1.16 | 1.21 | 1.04 | 0.934 | 1.34 | 0.694 | 0.493 | 0.39 | 0.497 | 0.198 | 0.209 | 0.18 | 0.2
12 | HOP-62 | 1.39 | 1.2 | 0.963 | 1.13 | 1.2 | 1.16 | 0.969 | 1.13 | 0.708 | 0.786 | 0.434 | 0.693 | 0.421 | 0.36 | 0.276 | 0.361
13 | NCI-H1437 | 1.54 | 1.1 | 0.962 | 1.33 | 1.35 | 1.3 | 1.24 | 1.32 | 0.482 | 0.375 | 0.286 | 0.48 | 0.34 | 0.371 | 0.301 | 0.329
14 | HCC-366 | 1.3 | 1.06 | 1.12 | 1.41 | 0.905 | 0.91 | 0.965 | 1.14 | 0.709 | 0.758 | 0.734 | 1.07 | 0.18 |  | 0.15 | 0.2
15 | NCI-H1755 | 1.08 | 0.967 | 0.941 | 1.2 | 0.994 | 0.931 | 0.868 | 1.08 | 0.438 | 0.448 | 0.346 | 0.468 | 0.552 | 0.389 | 0.411 | 0.656
16 | NCI-H3122 | 1.11 | 1.08 | 1.06 | 1.11 | 1.03 | 0.964 | 0.94 | 0.789 | 0.998 | 0.73 | 0.71 | 0.968 | 0.195 | 0.193 | 0.197 | 0.222
17 | ChaGo-K-1 | 1.19 | 0.905 | 1.05 | 0.956 | 0.962 | 0.97 | 0.873 | 1.13 | 0.525 | 0.611 | 0.72 | 0.649 | 0.251 | 0.266 | 0.271 | 0.263
18 | SW 1573 | 1.23 | 0.991 | 1.01 | 0.992 | 1.05 | 1.01 | 0.867 | 1.33 | 0.498 | 0.625 | 0.299 | 0.656 | 1 | 0.84 | 0.815 | 0.939
